Patent publication US8530652B2, “Pyrrolopyrazoles, potent kinase inhibitors” (Agouron Pharmaceuticals, Inc., priority 2005, dated 2013)
pKi: −log10 of the molar value.

Molecular target: PAK4 kinase domain (PAK4 KD) (Homo sapiens (Human), UniProt O96013)
Assay: PAK4 kinase domain enzymatic assay (coupled PK/LDH, NADH absorbance at 340 nm)
Format: biochemical
Conditions: PAK4 kinase domain, 25 nM PAK4 KD, 0.04 mM ATP, pH 7.5
Text: Cloning, expression, and purification of recombinant PAK4 Kinase domain (PAK4 KD): The cDNA coding for PAK4 was amplified from the EST clone (#12) (purchased from Research Genetics) by using PCR. […] The PCR amplified product was cloned into Topo vector (Invitrogen Inc.), and verified by DNA sequencing. PAK4 KD was then subcloned into expression plasmid pET28a(+), pET24a(+), or pGST4.5. The recombinant plasmids containing PAK4 KD was transformed into BL21(DE3) cells for recombinant protein expression. […] The cells were then harvested and lyzed for protein purification. Ni-NTA column (pET28a(+), pET24a(+)) and glutathione column (pGST4.5) were used for the purification.
PAK4 kinase domain enzymatic assay conditions: the enzymatic activity of PAK4 KD was measured by its ability to catalyze the transfer of a phosphate residue from a nucleoside triphosphate to an amino acid side chain of a commercially available peptide (amino acid sequence […]). The conversion of ATP to ADP accompanies the catalytic reaction. The PAK4 KD catalyzed production of ADP from ATP was coupled to the oxidation of NADH through the activities of pyruvate kinase (PK) and lactate dehydrogenase (LDH). The conversion of NADH to NAD^+ is monitored by the decrease in absorbance at 340 nm (e340=6.22 cm^−1mM^−1) using a Molecular Devices SPECTRAMAX 190 in conjunction with the Biomec FX. Typical reaction solutions contain 2 mM phosphoenolpyruvate, 0.35 mM NADH, 10 mM MgCl2, 1 mM DTT, 0.4 mM peptide ([…]) 0.04 mM ATP, 1 units/mL PK, 1 units/mL LDH, 0.01% Tween 20 in 50 mM HEPES, pH 7.5. […] The PAK KD Ki of each compound of the invention (the inhibitor) was calculated based on multiple of Percent Inhibition numbers of the inhibitor at different inhibitor concentrations. The peptide (amino sequence […]) was purchased from American Peptide Company. NADH, MgCl2, HEPES, DTT, ATP and PK/LDH were purchased from Sigma. Tween 20 was purchased from Calbiochem.

PAK4 kinase domain (PAK4 KD), sequence (O96013 321-572): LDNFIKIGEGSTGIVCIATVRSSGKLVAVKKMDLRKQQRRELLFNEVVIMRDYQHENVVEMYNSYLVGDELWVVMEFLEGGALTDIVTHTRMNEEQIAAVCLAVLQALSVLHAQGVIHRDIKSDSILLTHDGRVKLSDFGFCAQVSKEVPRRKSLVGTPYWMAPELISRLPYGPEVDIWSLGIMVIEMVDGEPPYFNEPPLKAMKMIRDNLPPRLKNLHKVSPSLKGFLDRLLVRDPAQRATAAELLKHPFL

pKi | Structure (SMILES)
6.57 | CC1(C)c2[nH]nc(Nc3nccc(C(F)(F)F)n3)c2CN1C(=O)N[C@H]1C[C@@H]1c1ccccc1 (relative stereo) [Example 28, 6,6-dimethyl-N-[trans-2-phenylcyclopropyl]-3-{[4-(trifluoromethyl)pyrimidin-2-yl]amino}-4,6-dihydropyrrolo[3,4-c]pyrazole-5(1H)-carboxamide]
6.03 | CN(C)C[C@@H](NC(=O)N1Cc2c(Nc3ncnc4c3ncn4C)n[nH]c2C1(C)C)c1ccccc1 [Example 57, N-[(1S)-2-(dimethylamino)-1-phenylethyl]-6,6-dimethyl-3-[(9-methyl-9H-purin-6-yl)amino]-4,6-dihydropyrrolo[3,4-c]pyrazole-5(1H)-carboxamide]
8.28 | Cc1cc2c(Nc3n[nH]c4c3CN(C(=O)O[C@H](CN(C)C)c3ccccc3)C4(C)C)ncnc2s1 [Example 71, (1S)-2-(dimethylamino)-1-phenylethyl 6,6-dimethyl-3-[(6-methylthieno[2,3-d]pyrimidin-4-yl)amino]-4,6-dihydropyrrolo[3,4-c]pyrazole-5(1H)-carboxylate]
5.60 | Cc1ncnc(Nc2n[nH]c3c2CN(C(=O)N2C[C@@H]4CCCN4C[C@@H]2C)C3(C)C)c1F [Example 82, N-(5-fluoro-6-methylpyrimidin-4-yl)-6,6-dimethyl-5-{[(3S,8aS)-3-methylhexahydropyrrolo[1,2-a]pyrazin-2(1H)-yl]carbonyl}-1,4,5,6-tetrahydropyrrolo[3,4-c]pyrazol-3-amine]
7.08 | Cc1csc2c(Nc3n[nH]c4c3CN(C(=O)N3C[C@@H]5CCCN5C[C@@H]3C)C4(C)C)ncnc12 [Example 81, N-(6,6-dimethyl-5-{[(3S,8aS)-3-methylhexahydropyrrolo[1,2-a]pyrazin-2(1H)-yl]carbonyl}-1,4,5,6-tetrahydropyrrolo[3,4-c]pyrazol-3-yl)-7-methylthieno[3,2-d]pyrimidin-4-amine]
7.00 | CC1(C)c2[nH]nc(Nc3ncnc4ccccc34)c2CN1C(=O)N[C@@H]1C[C@H]1c1ccccc1 (relative stereo) [Example 85, 3-(quinazolin-4-ylamino)-6,6-dimethyl-N-[trans-2-phenylcyclopropyl]-4,6-dihydropyrrolo[3,4-c]pyrazole-5(1H)-carboxamide]
7.26 | CC1(C)c2[nH]nc(Nc3nc(C4CC4)nc4ccccc34)c2CN1C(=O)N[C@@H]1C[C@H]1c1ccccc1 (relative stereo) [Example 86, 3-[(2-cyclopropylquinazolin-4-yl)amino]-6,6-dimethyl-N-[trans-2-phenylcyclopropyl]-4,6-dihydropyrrolo[3,4-c]pyrazole-5(1H)-carboxamide]
6.18 | CC1(C)c2[nH]nc(Nc3cc(C#N)ccn3)c2CN1C(=O)N[C@H]1C[C@@H]1c1ccccc1 (relative stereo) [Example 29, 3-[(4-cyanopyridin-2-yl)amino]-6,6-dimethyl-N-[trans-2-phenylcyclopropyl]-4,6-dihydropyrrolo[3,4-c]pyrazole-5(1H)-carboxamide]
6.00 | CC1(C)c2[nH]nc(Nc3ncncc3F)c2CN1C(=O)N[C@H]1C[C@@H]1c1ccccc1 (relative stereo) [Example 48, 3-[(5-fluoropyrimidin-4-yl)amino]-6,6-dimethyl-N-[trans-2-phenylcyclopropyl]-4,6-dihydropyrrolo[3,4-c]pyrazole-5(1H)-carboxamide]
6.85 | CCc1cc(Nc2n[nH]c3c2CN(C(=O)N[C@H](CN(C)C)c2ccccc2)C3(C)C)ncn1 [Example 54, N-[(1S)-2-(Dimethylamino)-1-phenylethyl]-3-[(6-ethylpyrimidin-4-yl)amino]-6,6-dimethyl-4,6-dihydropyrrolo[3,4-c]pyrazole-5(1H)-carboxamide]
6.70 | CC1(C)c2[nH]nc(Nc3cccc(C(F)(F)F)n3)c2CN1C(=O)N[C@H]1C[C@@H]1c1ccccc1 (relative stereo) [Example 27, 3-[(6-trifluoromethylpyridin-2-yl)amino]-6,6-dimethyl-N-[trans-2-phenylcyclopropyl]-4,6-dihydropyrrolo[3,4-c]pyrazole-5(1H)-carboxamide]

Second part, the compound before the results:

Structure (SMILES) | pKi
Cc1cc(C)nc(Nc2n[nH]c3c2CN(C(=O)NC2C[C@@H]2c2ccccc2)C3(C)C)n1 (some centres unmarked) [Example 24] | 6.19
CC1(C)c2[nH]nc(Nc3cc(Cl)nc(Cl)n3)c2CN1C(=O)N[C@H]1C[C@@H]1c1ccccc1 (relative stereo) [Example 4, 3-[(2,6-dichloropyrimidin-4-yl)amino]-6,6-dimethyl-N-[trans-2-phenylcyclopropyl]-4,6-dihydropyrrolo[3,4-c]pyrazole-5(1H)-carboxamide] | 6.96
Cc1cc(C(F)(F)F)cc(Nc2n[nH]c3c2CN(C(=O)N[C@H]2C[C@@H]2c2ccccc2)C3(C)C)n1 (relative stereo) [Example 26, 3-[(4-trifluoromethyl-6-methylpyridin-2-yl)amino]-6,6-dimethyl-N-[trans-2-phenylcyclopropyl]-4,6-dihydropyrrolo[3,4-c]pyrazole-5(1H)-carboxamide] | 6.66
COc1nc(Nc2n[nH]c3c2CN(C(=O)NC2CC2c2ccccc2)C3(C)C)nc(N2CC2C)n1 (stereo not drawn) [Example 18, 3-{[4-methoxy-6-(2-methylaziridin-1-yl)-1,3,5-triazin-2-yl]amino}-6,6-dimethyl-N-[trans-2-phenylcyclopropyl]-4,6-dihydropyrrolo[3,4-c]pyrazole-5(1H)-carboxamide] | 6.47
COc1nc(Nc2n[nH]c3c2CN(C(=O)N[C@H]2C[C@@H]2c2ccccc2)C3(C)C)nc(OC)n1 (relative stereo) [Example 14, 3-[(4,6-dimethoxy-1,3,5-triazin-2-yl)amino]-6,6-dimethyl-N-[trans-2-phenylcyclopropyl]-4,6-dihydropyrrolo[3,4-c]pyrazole-5(1H)-carboxamide] | 6.57
CC1(C)c2[nH]nc(Nc3cc(C(F)(F)F)ccn3)c2CN1C(=O)N[C@H]1C[C@@H]1c1ccccc1 (relative stereo) [Example 25, 3-[(4-trifluoromethylpyridin-2-yl)amino]-6,6-dimethyl-N-[trans-2-phenylcyclopropyl]-4,6-dihydropyrrolo[3,4-c]pyrazole-5(1H)-carboxamide] | 6.11
CC1(C)c2[nH]nc(Nc3nc(N)nc(Cl)n3)c2CN1C(=O)N[C@@H]1C[C@H]1c1ccccc1 (relative stereo) [Example 8, 3-[(4-amino-6-chloro-1,3,5-triazin-2-yl)amino]-6,6-dimethyl-N-[trans-2-phenylcyclopropyl]-4,6-dihydropyrrolo[3,4-c]pyrazole-5(1H)-carboxamide] | 6.21
CSc1nc(Nc2n[nH]c3c2CN(C(=O)N[C@@H]2C[C@H]2c2ccccc2)C3(C)C)cc(C(F)(F)F)n1 (relative stereo) [Example 11, 6,6-dimethyl-3-{[2-(methylthio)-6-(trifluoromethyl)pyrimidin-4-yl]amino}-N-[trans-2-phenylcyclopropyl]-4,6-dihydropyrrolo[3,4-c]pyrazole-5(1H)-carboxamide] | 6.02
CNC(=O)[C@@H]1CCCN1c1nc(Nc2n[nH]c3c2CN(C(=O)NC2CC2c2ccccc2)C3(C)C)nc(OC)n1 (some centres unmarked) [Example 17] | 6.11
COc1nc(Nc2n[nH]c3c2CN(C(=O)N[C@@H]2C[C@H]2c2ccccc2)C3(C)C)nc(N2CCCC2)n1 (relative stereo) [Example 19, 3-[(4-methoxy-6-pyrrolidin-1-yl-1,3,5-triazin-2-yl)amino]-6,6-dimethyl-N-[trans-2-phenylcyclopropyl]-4,6-dihydropyrrolo[3,4-c]pyrazole-5(1H)-carboxamide] | 6.72
CN(C)c1nc(Nc2n[nH]c3c2CN(C(=O)NC2C[C@@H]2c2ccccc2)C3(C)C)nc(N2CCC[C@H]2C(N)=O)n1 (some centres unmarked) [Example 22] | 6.14
COc1nc(Nc2n[nH]c3c2CN(C(=O)NC2CC2c2ccccc2)C3(C)C)nc(N2CCC[C@H]2C(N)=O)n1 (stereo partly drawn) [Example 21, 3-({4-[(2S)-2-(aminocarbonyl)pyrrolidin-1-yl]-6-methoxy-1,3,5-triazin-2-yl}amino)-6,6-dimethyl-N-[trans-2-phenylcyclopropyl]-4,6-dihydropyrrolo[3,4-c]pyrazole-5(1H)-carboxamide] | 6.62
